Columns and labels:
[1] = Inhibition of Escherichia coli GAR transformylase
[2] = molecular target: T1, Trifunctional purine biosynthetic protein adenosine-3 (Homo sapiens, UniProt P22102); assay: Inhibition of human recombinant GAR transformylase
T1 sequence (P22102 whole entry): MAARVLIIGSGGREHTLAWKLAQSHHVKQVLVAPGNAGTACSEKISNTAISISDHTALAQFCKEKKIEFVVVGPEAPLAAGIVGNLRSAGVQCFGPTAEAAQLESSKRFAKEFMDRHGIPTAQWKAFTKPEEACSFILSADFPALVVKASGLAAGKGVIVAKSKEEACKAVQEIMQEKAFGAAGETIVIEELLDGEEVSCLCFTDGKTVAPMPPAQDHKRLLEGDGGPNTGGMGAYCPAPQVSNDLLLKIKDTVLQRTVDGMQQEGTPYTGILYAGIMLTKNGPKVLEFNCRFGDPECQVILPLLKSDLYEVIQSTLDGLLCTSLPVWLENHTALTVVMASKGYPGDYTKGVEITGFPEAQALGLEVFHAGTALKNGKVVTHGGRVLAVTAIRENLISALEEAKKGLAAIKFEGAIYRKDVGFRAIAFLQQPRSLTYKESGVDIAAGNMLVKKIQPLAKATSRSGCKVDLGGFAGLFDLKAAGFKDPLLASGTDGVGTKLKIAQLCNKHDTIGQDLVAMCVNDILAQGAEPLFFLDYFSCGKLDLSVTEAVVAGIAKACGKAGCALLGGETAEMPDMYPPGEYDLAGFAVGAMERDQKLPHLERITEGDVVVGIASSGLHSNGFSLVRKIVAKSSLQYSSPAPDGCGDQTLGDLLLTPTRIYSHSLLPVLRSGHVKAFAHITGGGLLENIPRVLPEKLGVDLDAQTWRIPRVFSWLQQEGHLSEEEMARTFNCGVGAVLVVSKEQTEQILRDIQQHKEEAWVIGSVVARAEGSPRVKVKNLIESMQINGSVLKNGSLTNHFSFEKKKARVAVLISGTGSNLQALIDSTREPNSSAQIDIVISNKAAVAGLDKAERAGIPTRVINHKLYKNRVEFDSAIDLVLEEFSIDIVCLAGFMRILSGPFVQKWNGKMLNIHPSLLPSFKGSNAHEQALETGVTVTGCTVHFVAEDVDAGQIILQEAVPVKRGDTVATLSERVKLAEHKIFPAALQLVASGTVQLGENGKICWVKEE

[3] = molecular target: Bifunctional purine biosynthesis protein ATIC (Homo sapiens, UniProt P31939); assay: Inhibition of IMPCH activity of human wild-type ATIC
Bifunctional purine biosynthesis protein ATIC, sequence (P31939 whole entry): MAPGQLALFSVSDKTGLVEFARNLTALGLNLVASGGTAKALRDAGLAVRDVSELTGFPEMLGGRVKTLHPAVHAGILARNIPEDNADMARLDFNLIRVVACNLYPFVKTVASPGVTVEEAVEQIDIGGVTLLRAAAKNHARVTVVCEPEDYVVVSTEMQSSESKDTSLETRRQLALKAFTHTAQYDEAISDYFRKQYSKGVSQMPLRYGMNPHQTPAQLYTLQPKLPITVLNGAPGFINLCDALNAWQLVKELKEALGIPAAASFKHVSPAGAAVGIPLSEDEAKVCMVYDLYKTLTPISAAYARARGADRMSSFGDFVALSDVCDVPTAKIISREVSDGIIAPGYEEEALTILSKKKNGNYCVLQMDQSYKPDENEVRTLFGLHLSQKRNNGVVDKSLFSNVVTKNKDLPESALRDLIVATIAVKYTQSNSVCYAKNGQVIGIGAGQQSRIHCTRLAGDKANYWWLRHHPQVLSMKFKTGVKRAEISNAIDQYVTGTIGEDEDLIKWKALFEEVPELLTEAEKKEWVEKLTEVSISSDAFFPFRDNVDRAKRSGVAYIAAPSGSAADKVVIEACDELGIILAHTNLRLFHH

| Structure (SMILES) | Ki [1] | Ki [2] | Ki [3] |
| --- | --- | --- | --- |
| O=C1NS(=O)(=O)Nc2nc[nH]c21 | > 100 µM | > 100 µM |  |
| O=C1NS(=O)(=O)Nc2c1ncn2[C@@H]1O[C@H](COP(=O)(O)O)[C@@H](O)[C@H]1O | > 100 µM | 4.8 µM |  |
| O=C1NS(=O)(=O)Nc2c1ncn2[C@@H]1O[C@H](CO)[C@@H](O)[C@H]1O | > 100 µM | > 100 µM |  |
| NC(=O)c1ncn([C@@H]2O[C@H](COP(=O)(O)O)[C@@H](O)[C@H]2O)c1NC=O [FAICAR] |  |  | 400 nM |
| Nc1nc2c(c(=O)[nH]1)C[C@@H](CCc1ccc(C(=O)N[C@@H](CCC(=O)O)C(=O)O)cc1)CN2 [LOMETREXOL] | 0.1 µM |  |  |
